# Assay results reported in the supplement of paper PMC10307832.
# Assays:
# Experiment in all cases: relative viability (nuclei count vs DMSO), 5 days (fraction); higher = more cells survive
# ChaGo-K-1 = test system: ChaGo-K-1
# In short: (§1)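 After 5 days of treatment, lung cancer cells in 1536-well plates were fixed and stained in a single step (final 0.05% Triton X-100, 1% formaldehyde, 1 ug/ml Hoechst) and their nuclei counted on 4× images. Treatment had been applied by pin tool the day after seeding as one drug alone or as a fixed anchor-drug dose with five library-drug doses (not always all listed) in √10 steps. Relative viability is the nuclei count of treated wells divided by that of vehicle wells, and values are medians of duplicate plates.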
# EMC-BAC-2 = test system: EMC-BAC-2
# In short: as §1
# EPLC-272H = test system: EPLC-272H
# In short: as §1
# HCC-78 = test system: HCC-78
# In short: as §1
# HCC-827 = test system: HCC-827
# In short: as §1
# LCLC-103H = test system: LCLC-103H
# In short: as §1
# LK-2 = test system: LK-2
# In short: as §1
# LOU-NH91 = test system: LOU-NH91
# In short: as §1
# LU99A = test system: LU99A
# In short: as §1
# LXF-289 = test system: LXF-289
# In short: as §1
# NCI-H1563 = test system: NCI-H1563
# In short: as §1
# NCI-H1666 = test system: NCI-H1666
# In short: as §1
# NCI-H1975 = test system: NCI-H1975
# In short: as §1
# NCI-H2085 = test system: NCI-H2085
# In short: as §1
# NCI-H2126 = test system: NCI-H2126
# In short: as §1
# NCI-H23 = test system: NCI-H23
# In short: as §1
# NCI-H2405 = test system: NCI-H2405
# In short: as §1
# NCI-H3122 = test system: NCI-H3122
# In short: as §1
# NCI-H322M = test system: NCI-H322M
# In short: as §1
# RERF-LC-KJ = test system: RERF-LC-KJ
# In short: as §1
# SK-LU-1 = test system: SK-LU-1
# In short: as §1
# SW 1573 = test system: SW 1573
# In short: as §1
structure (smiles),measurement,setting,value
Oc1nc(-c2ccc(C(F)(F)F)cc2)nc2c1CSCC2 [XAV939] + C[C@@H](Oc1cc(-c2cnn(C3CCNCC3)c2)cnc1N)c1c(Cl)ccc(F)c1Cl [Crizotinib] (partner 1 µM),relative viability,ChaGo-K-1; first compound 0.08 µM,1.28
same,relative viability,ChaGo-K-1; first compound 0.253 µM,1.16
same,relative viability,ChaGo-K-1; first compound 0.8 µM,1.07
same,relative viability,ChaGo-K-1; first compound 2.53 µM,0.883
same,relative viability,EMC-BAC-2; first compound 0.08 µM,0.821
same,relative viability,EMC-BAC-2; first compound 0.253 µM,0.63
same,relative viability,EMC-BAC-2; first compound 0.8 µM,0.623
same,relative viability,EMC-BAC-2; first compound 2.53 µM,0.438
same,relative viability,EPLC-272H; first compound 0.08 µM,0.956
same,relative viability,EPLC-272H; first compound 0.253 µM,0.96
same,relative viability,EPLC-272H; first compound 0.8 µM,0.995
same,relative viability,EPLC-272H; first compound 2.53 µM,0.908
same,relative viability,HCC-78; first compound 0.08 µM,0.342
same,relative viability,HCC-78; first compound 0.253 µM,0.316
same,relative viability,HCC-78; first compound 0.8 µM,0.326
same,relative viability,HCC-78; first compound 2.53 µM,0.299
same,relative viability,HCC-827; first compound 0.08 µM,0.897
same,relative viability,HCC-827; first compound 0.253 µM,0.818
same,relative viability,HCC-827; first compound 0.8 µM,0.887
same,relative viability,HCC-827; first compound 2.53 µM,0.949
same,relative viability,LCLC-103H; first compound 0.08 µM,1.07
same,relative viability,LCLC-103H; first compound 0.253 µM,0.917
same,relative viability,LCLC-103H; first compound 0.8 µM,0.984
same,relative viability,LCLC-103H; first compound 2.53 µM,0.968
same,relative viability,LK-2; first compound 0.08 µM,0.178
same,relative viability,LK-2; first compound 0.253 µM,0.224
same,relative viability,LK-2; first compound 0.8 µM,0.181
same,relative viability,LK-2; first compound 2.53 µM,0.207
same,relative viability,LOU-NH91; first compound 0.08 µM,0.719
same,relative viability,LOU-NH91; first compound 0.253 µM,0.708
same,relative viability,LOU-NH91; first compound 0.8 µM,0.734
same,relative viability,LOU-NH91; first compound 2.53 µM,0.699
same,relative viability,LU99A; first compound 0.08 µM,0.539
same,relative viability,LU99A; first compound 0.253 µM,0.55
same,relative viability,LU99A; first compound 0.8 µM,0.567
same,relative viability,LU99A; first compound 2.53 µM,0.504
same,relative viability,LXF-289; first compound 0.08 µM,0.833
same,relative viability,LXF-289; first compound 0.253 µM,0.754
same,relative viability,LXF-289; first compound 0.8 µM,0.829
same,relative viability,LXF-289; first compound 2.53 µM,0.874
same,relative viability,NCI-H1563; first compound 0.08 µM,0.834
same,relative viability,NCI-H1563; first compound 0.253 µM,0.846
same,relative viability,NCI-H1563; first compound 0.8 µM,0.789
same,relative viability,NCI-H1563; first compound 2.53 µM,0.697
same,relative viability,NCI-H1666; first compound 0.08 µM,0.971
same,relative viability,NCI-H1666; first compound 0.253 µM,0.64
same,relative viability,NCI-H1666; first compound 0.8 µM,0.781
same,relative viability,NCI-H1666; first compound 2.53 µM,0.473
same,relative viability,NCI-H1975; first compound 0.08 µM,1.07
same,relative viability,NCI-H1975; first compound 0.253 µM,0.666
same,relative viability,NCI-H1975; first compound 0.8 µM,0.919
same,relative viability,NCI-H1975; first compound 2.53 µM,0.737
same,relative viability,NCI-H2085; first compound 0.08 µM,0.961
same,relative viability,NCI-H2085; first compound 0.253 µM,0.826
same,relative viability,NCI-H2085; first compound 0.8 µM,0.917
same,relative viability,NCI-H2085; first compound 2.53 µM,0.734
same,relative viability,NCI-H2126; first compound 0.08 µM,1.12
same,relative viability,NCI-H2126; first compound 0.253 µM,0.95
same,relative viability,NCI-H2126; first compound 0.8 µM,0.938
same,relative viability,NCI-H2126; first compound 2.53 µM,0.828
same,relative viability,NCI-H23; first compound 0.08 µM,0.502
same,relative viability,NCI-H23; first compound 0.253 µM,0.425
same,relative viability,NCI-H23; first compound 0.8 µM,0.436
same,relative viability,NCI-H23; first compound 2.53 µM,0.426
same,relative viability,NCI-H2405; first compound 0.08 µM,0.906
same,relative viability,NCI-H2405; first compound 0.253 µM,0.816
same,relative viability,NCI-H2405; first compound 0.8 µM,0.808
same,relative viability,NCI-H2405; first compound 2.53 µM,0.775
same,relative viability,NCI-H3122; first compound 0.08 µM,0.286
same,relative viability,NCI-H3122; first compound 0.253 µM,0.27
same,relative viability,NCI-H3122; first compound 0.8 µM,0.238
same,relative viability,NCI-H3122; first compound 2.53 µM,0.234
same,relative viability,NCI-H322M; first compound 0.08 µM,1.03
same,relative viability,NCI-H322M; first compound 0.253 µM,0.83
same,relative viability,NCI-H322M; first compound 0.8 µM,0.911
same,relative viability,NCI-H322M; first compound 2.53 µM,0.547
same,relative viability,RERF-LC-KJ; first compound 0.08 µM,0.807
same,relative viability,RERF-LC-KJ; first compound 0.253 µM,0.82
same,relative viability,RERF-LC-KJ; first compound 0.8 µM,0.741
same,relative viability,RERF-LC-KJ; first compound 2.53 µM,0.582
same,relative viability,SK-LU-1; first compound 0.08 µM,0.929
same,relative viability,SK-LU-1; first compound 0.253 µM,0.809
same,relative viability,SK-LU-1; first compound 0.8 µM,0.936
same,relative viability,SK-LU-1; first compound 2.53 µM,0.823
same,relative viability,SW 1573; first compound 0.08 µM,0.948
same,relative viability,SW 1573; first compound 0.253 µM,0.85
same,relative viability,SW 1573; first compound 0.8 µM,0.757
same,relative viability,SW 1573; first compound 2.53 µM,0.646
